# Experimental data published in publication PMC6199744, “Development of Chemical Proteomics for the Folateome and Analysis of the Kinetoplastid Folateome” (ACS Infectious Diseases, 2018).
# “And” between values parts separate entries of the source, which are not always exact repeats. Equal entries are not always repeated. Where two headings read alike, the source gives them in different places.
# Tested on: L. major lysate proteins
# Test: Multitargeted bead mixture chemoproteomics, single concentration competition, proteome-wide
# Assay type: binding
structure (smiles),measurement,setting,value
NCCCNc1ccc(C(=O)NC(CCC(=O)O)C(=O)O)cc1 (stereo not drawn) [compound 7],fold change,,0.99
same,fold change relative to vehicle control,,1.03 and 1.04
same,fold change vs vehicle control,,1.19 and 1.04 and 1.12
same,"protein inhibition, any captured protein (Figure 8)","bead mixture, L. major lysate",no protein inhibition >30%
same,fold change vs vehicle control,protein CLI00016468.1 KINETOPLASTID MEMBRANE PROTEIN-11,0.73
same,fold change vs vehicle control,"protein LINJ.03.0240 RIBOSOMAL PROTEIN L38, PUTATIVE",1.02
same,fold change vs vehicle control,"protein LINJ.11.0780 40S RIBOSOMAL PROTEIN S21, PUTATIVE",1.05
same,fold change,"protein LINJ.11.0960 40S RIBOSOMAL PROTEIN S5, vehicle control = 1",0.98
same,fold change vs vehicle control,"protein LINJ.13.0990 […] SUBUNIT 2, PUTATIVE",1.26
same,fold change vs vehicle control,"protein LINJ.15.0330 RIBONUCLEOPROTEIN P18, MITOCHONDRIAL PRECURSOR, PUTATIVE",0.97
same,fold change,"protein LINJ.19.0090 FIBRILLARIN, PUTATIVE, vehicle control = 1",1.04
same,fold change relative to vehicle control,"protein LINJ.23.0860, 3-KETOACYL-COA THIOLASE, PUTATIVE",1.02
same,fold change relative to vehicle control,"protein LINJ.24.2300, 60S RIBOSOMAL PROTEIN L12, PUTATIVE",1.04
same,fold change vs vehicle control,"protein LINJ.25.2230 SUCCINYL-COA SYNTHETASE ALPHA SUBUNIT, PUTATIVE",0.97
same,fold change vs vehicle control,"protein LINJ.26.1630 40S RIBOSOMAL PROTEIN S33, PUTATIVE",1.04
same,fold change vs vehicle control,"protein LINJ.28.1100 RIBOSOMAL PROTEIN S20, PUTATIVE",1.02
same,fold change relative to vehicle control,"protein LINJ.28.1940, REPLICATION FACTOR A, 51KDA SUBUNIT, PUTATIVE",1.1
same,fold change,"protein LINJ.28.2280 DYNEIN LIGHT CHAIN LC6, FLAGELLAR OUTER ARM, PUTATIVE, vehicle control = 1",0.9
same,fold change,"protein LINJ.28.2870 PROTEIN PHOSPHATASE 4 CATALYTIC SUBUNIT, PUTATIVE, vehicle control = 1",0.91
same,fold change relative to vehicle control,"protein LINJ.31.1600, […] OXIDASE VIII (COX VIII), PUTATIVE",1.19
same,fold change relative to vehicle control,"protein LINJ.33.1730, CYCLOPHILIN 4, PUTATIVE",1.08
same,fold change vs vehicle control,"protein LINJ.34.0670 PROTEASOME REGULATORY NON-ATP-ASE SUBUNIT 11, PUTATIVE,19S PROTEASOME REGULATORY SUBUNIT",0.97
same,fold change vs vehicle control,"protein LINJ.36.0780 PROTEIN KINASE, PUTATIVE,MITOGEN-ACTIVATED PROTEIN KINASE, PUTATIVE",1.26
same,fold change relative to vehicle control,"protein LINJ.36.3960, BASIC TRANSCRIPTION FACTOR 3A, PUTATIVE",1.58
same,fold change relative to vehicle control,"protein LINJ.36.4080, HY[…], CONSERVED",1.32
same,fold change,"protein LINJ.36.4180 HS1VU COMPLEX PROTEOLYTIC SUBUNIT-LIKE, vehicle control = 1",0.93
same,fold change vs vehicle control,"protein LINJ.[…] LONG-CHAIN-FATTY-ACID-COA LIGASE, PUTATIVE",0.9
same,fold change,"protein LMJF.01.0570 TRIC[…], PUTATIVE, vehicle control = 1",0.92
same,fold change relative to vehicle control,"protein LMJF.03.0200, DELTA-1-PYRROLINE-5-CARBOXYLATE DEHYDROGENASE, PUTATIVE",1.07
same,fold change,"protein LMJF.03.0230 LONG CHAIN FATTY ACYL COA SYNTHETASE, PUTATIVE, vehicle control = 1",1
same,fold change,"protein LMJF.03.0980 […] 2 ALPHA SUBUNIT, PUTATIVE, vehicle control = 1",1.01
same,fold change vs vehicle control,"protein LMJF.04.0630 HY[…], CONSERVED",1.07
same,fold change vs vehicle control,protein LMJF.04.1230 actin,1.04
same,fold change,"protein LMJF.05.0100 PHOSPHOPROTEIN PHOSPHATASE, PUTATIVE, vehicle control = 1",0.91
same,fold change,"protein LMJF.05.0280 PROTEIN TYROSINE PHOSPHATASE, PUTATIVE, vehicle control = 1",0.99
same,fold change,"protein LMJF.05.0510 ATPASE ALPHA SUBUNIT, vehicle control = 1",1.08
same,fold change,"protein LMJF.05.1040 STOMATIN-LIKE PROTEIN, vehicle control = 1",0.92
same,fold change,"protein LMJF.06.0650 LANOSTEROL SYNTHASE, PUTATIVE, vehicle control = 1",0.95
same,fold change vs vehicle control,protein LMJF.07.0700 TOPOISOMERASE-RELATED FUNCTION PROTEIN-LIKE PROTEIN,1.1
same,fold change,"protein LMJF.07.1000 RNA BINDING PROTEIN-LIKE PROTEIN, vehicle control = 1",0.88
same,fold change relative to vehicle control,"protein LMJF.07.1140, PEPTIDE […] REDUCTASE-LIKE",1.06
same,fold change,"protein LMJF.08.0510 RIBOSE-PHOSPHATE PYROPHOSPHOKINASE, PUTATIVE, vehicle control = 1",0.91
same,fold change vs vehicle control,protein LMJF.08.0550 TRANSLATION INITIATION FACTOR-LIKE PROTEIN,0.9
same,fold change relative to vehicle control,"protein LMJF.08.1030, cathepsin L-like protease",1.03
same,fold change vs vehicle control,"protein LMJF.08.1100 HYPOTHETICAL PROTEIN, CONSERVED",0.98
same,fold change vs vehicle control,"protein LMJF.09.1010 HYPOTHETICAL PROTEIN, CONSERVED",0.75
same,fold change relative to vehicle control,"protein LMJF.09.1120, MIT[…] BINDING PROTEIN 2,MRP2, GBP25",1.14
same,fold change vs vehicle control,"protein LMJF.09.1260 HYPOTHETICAL PROTEIN, CONSERVED",0.95
same,fold change,"protein LMJF.10.0210 NUCLEOLAR PROTEIN, PUTATIVE, vehicle control = 1",1.01
same,fold change vs vehicle control,"protein LMJF.10.0310 PROTEIN TRANSPORT PROTEIN SEC23, PUTATIVE",1.31
same,fold change,"protein LMJF.11.0590 3-[…]-COA C[…] SUBUNIT, PUTATIVE, vehicle control = 1",1
same,fold change relative to vehicle control,"protein LMJF.11.0630, AMINOPEPTIDASE, PUTATIVE,METALLO-PEPTIDASE, CLAN MF, FAMILY M17",0.94
same,fold change vs vehicle control,"protein LMJF.11.1050 PRETRA[…], ALPHA SUBUNIT, PUTATIVE,SEC61-LIKE (PRETRA[…]) PROTEIN, PUTATIVE",1.07
same,fold change,"protein LMJF.11.1160 PROTEIN TRANSPORT PROTEIN SEC31, PUTATIVE, vehicle control = 1",1.26
same,fold change,"protein LMJF.12.0030 PROTEASOME BETA-1 SUBUNIT, PUTATIVE, vehicle control = 1",0.94
same,fold change vs vehicle control,"protein LMJF.12.0210 […] […]1L8 3, PUTATIVE",0.95
same,fold change relative to vehicle control,"protein LMJF.12.0530, GLUCOSE-6-PHOSPHATE ISOMERASE",1.09
same,fold change,"protein LMJF.12.0630 ALANINE AMINOTRANSFERASE, vehicle control = 1",0.93
same,fold change vs vehicle control,"protein LMJF.13.1230 40S RIBOSOMAL PROTEIN S4, PUTATIVE",1.05
same,fold change vs vehicle control,"protein LMJF.14.0310 PROTEASOME ALPHA 3 SUBUNIT, PUTATIVE",0.96
same,fold change,"protein LMJF.14.0660 FATTY ACID ELONGASE, PUTATIVE, vehicle control = 1",1.02
same,fold change,"protein LMJF.14.0670 FATTY ACID ELONGASE, PUTATIVE, vehicle control = 1",0.94
same,fold change vs vehicle control,"protein LMJF.14.0680 FATTY ACID ELONGASE, PUTATIVE",1.14
same,fold change,"protein LMJF.14.0990 ADP/ATP MIT[…]-LIKE PROTEIN, vehicle control = 1",1.25
same,fold change vs vehicle control,protein LMJF.14.1160 ENOLASE,1.02
same,fold change,"protein LMJF.14.1440 HYPOTHETICAL PROTEIN, CONSERVED (cytoskeleton associated protein, putative), vehicle control = 1",0.82
